Read-outs that look alike come from different tables or passages of the source.
Biological target: T1, human PD-L1 (293T-hPD-L1 cells; binding of PE-labeled PD-1-Ig) (Homo sapiens, UniProt Q9NZQ7)
T1 construct: expressed in transfected cells; host or cells: 293T (human embryonic kidney) stably over-expressing human PD-L1
Experiment: 293T-hPD-L1 Cell Binding High-Content Screening Assay (CBA)
Procedure: 293T-hPD-L1 Cell Binding High-Content Screening Assay (CBA).
Phycoerythrin (PE) was covalently linked to the Ig epitope tag of human PD-1-Ig and fluorescently-labeled PD-1-Ig was used for binding studies with a human embryonic kidney cell line (293T) stably over-expressing human PD-L1 (293T-hPD-L1). Briefly, 2×10^3 293T-hPD-L1 cells were seeded into 384 well plates in 20 μl of DMEM supplemented with 10% fetal calf serum and cultured overnight. 125 nl of compound was added to cells followed by 5 μl of PE-labeled PD-1-Ig (0.5 nM final), diluted in DMEM supplemented with 10% fetal calf serum, followed by incubation at 37° C. for 1 h. Cells were washed 3× in 100 μl dPBS followed by fixation with 30 μl of 4% paraformaldehyde in dPBS containing 10 μg/ml Hoechst 33342 for 30 min at room temperature. Cells were washed 3× in 100 μl of dPBS followed by final addition of 15 μl of dPBS. Data was collected and processed using a Cell Insight NXT High Content Imager and associated software.
Table 1 lists the IC50 values for representative examples of this disclosure measured in the 293T-hPD-L1 Cell Binding High-Content Screening Assay.

T1 sequence (Q9NZQ7 19-290): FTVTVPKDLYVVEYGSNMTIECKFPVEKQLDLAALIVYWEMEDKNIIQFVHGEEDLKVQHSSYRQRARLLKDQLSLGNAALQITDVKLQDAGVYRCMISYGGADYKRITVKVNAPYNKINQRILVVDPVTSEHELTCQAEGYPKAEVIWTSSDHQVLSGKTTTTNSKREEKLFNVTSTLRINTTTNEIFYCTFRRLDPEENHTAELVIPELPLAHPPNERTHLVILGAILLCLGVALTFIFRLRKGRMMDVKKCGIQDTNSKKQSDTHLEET

Q: How did the IC50 (293T cells stably over-expressing human PD-L1, PE-labeled human PD-1-Ig 0.5 nM final, 37° C. for 1 h, read-out: 293T-hPD-L1_PD-1 IC50) turn out when `CCCC[C@H]1C(=O)N(C)[C@@H](CCCC)C(=O)N[C@@H](CC(C)C)C(=O)N[C@H](C(=O)NCC(=O)N[C@@H](Cc2cn(CCOCCOCCOCCOCCOCCOCCOCCOCCOCCOCCOCCNC(=O)CC[C@H](NC(=O)CCCCCCCCCOc3ccc(C(=O)O)cc3)C(=O)O)nn2)C(=O)O)CSCC(=O)N[C@@H](Cc2ccc(O)cc2)C(=O)N(C)[C@@H](C)C(=O)N[C@@H](CC(N)=O)C(=O)N2CCC[C@H]2C(=O)N[C@@H](CN)C(=O)N[C@@H](CC(C)C)C(=O)N2C[C@H](O)C[C@H]2C(=O)N[C@@H](Cc2c[nH]c3ccccc23)C(=O)N[C@@H](CCN)C(=O)N[C@@H](Cc2cn(CC(=O)O)c3ccccc23)C(=O)N1C` [Example 1001] was run?
A: The IC50 was 3.3 nM.

Q: `CCCC[C@H]1C(=O)N(C)[C@@H](CCCC)C(=O)N[C@@H](CC(C)C)C(=O)N[C@H](C(=O)NCC(=O)N[C@@H](Cc2cn(CCOCCOCCOCCOCCOCCOCCOCCOCCOCCOCCOCCNC(=O)CC[C@H](NC(=O)CCCCCCCCCCCOc3ccc(C(=O)O)cc3)C(=O)O)nn2)C(=O)O)CSCC(=O)N[C@@H](Cc2ccc(O)cc2)C(=O)N(C)[C@@H](C)C(=O)N[C@@H](CC(N)=O)C(=O)N2CCC[C@H]2C(=O)N[C@@H](CN)C(=O)N[C@@H](CC(C)C)C(=O)N2C[C@H](O)C[C@H]2C(=O)N[C@@H](Cc2c[nH]c3ccccc23)C(=O)N[C@@H](CCN)C(=O)N[C@@H](Cc2cn(CC(=O)O)c3ccccc23)C(=O)N1C` [Example 1003] was tested. Which IC50 did it give?
A: Its IC50 is 3.6 nM.

Source: patent US20260167671A1, “IMMUNOMODULATORS” (Bristol-Myers Squibb Company, priority 2021, published 2026)
